Source: US20050124631A1, “Inhibitors of polyq-aggregation” (priority 2001, published 2005)

In the case of `Cc1ccc(Cl)c2sc(N)nc12` [Example 2, 2-Amino-7-chloro-4-methylbenzothiazole], the melting point is reported as 206 °C.
